{"source": "patent US10464901B2", "about": "“Composition including benzene diamine derivative for preventing or treating degenerative brain diseases” (UNIST(ULSAN NATIONAL INSTITUTE OF SCIENCE AND TECHNOLOGY), priority 2017, dated 2019)", "key": {"[1]": {"test_system": "APP/PS/Tau dementia mouse model", "assay": "Morphological change of brain of dementia mouse model", "format": "in vivo", "conditions": "oral 100 μg/kg twice a week for 2 months, FIG. 6", "excerpt": "In order to examine therapeutic effects of the benzene diamine derivatives on dementia, dementia mouse models were orally administered with the benzene diamine derivative, and morphological changes in the brains thereof were examined.\nIn detail, APP/PS/Tau was purchased as the dementia mouse model from Jackson lab (BAR HARBOR, USA), and APP/Tau female and APP/PSen1de9 purchased from Taconic (Hudson, USA) were cross-mated for 6 generations, and 4-month-old mouse models were obtained from F1. The dementia mouse models were divided into groups of 6 mice, and among the dementia mouse models, a control group was orally administered with a vehicle (PBS) for 2 months, and an experimental group was orally administered with 100 μg/kg/0.1 ml of N^1-(pyridin-2-ylmethyl)benzene-1,4-diamine (Compound 2) twice a week for 2 months. Thereafter, the mice were sacrificed, and their brains were removed. Their longitudinal sections were cut, and morphological changes were examined. For comparison, a normal mouse was sacrificed and its brain was removed. Its longitudinal section was cut, and morphological changes were examined."}, "Aβ aggregates": {"test_system": "Aβ aggregates", "assay": "Brain tissue staining of Aβ aggregates with Thioflavin T", "format": "in vivo, mouse", "conditions": "oral 100 μg/kg twice a week for 2 months, confocal, FIG. 9", "experimental": "Like oligomeric Aβ, Aβ aggregates in the brain tissue may cause neuronal cell death by neuronal cytotoxicity, which may cause dementia. Therefore, anatomical analysis of the brain tissue was performed to examine whether the benzene diamine derivatives of the present disclosure inhibit neuronal cytotoxicity by Aβ aggregates in dementia mouse models.\nIn detail, as in Experimental Example 7-1, the dementia mouse models were prepared and their brain tissues were stained. Aβ aggregates in the brain tissue were labeled with Thioflavin T (ThT, Sigma-Aldrich) (green fluorescence), plaques were stained with a fluorescent staining reagent MX04 (blue), and incubated at 4° C. for 12 hours. Thereafter, the tissues were observed under a confocal microscope at 0.5×10."}, "oligomeric Aβ42": {"molecular_target": "T1, oligomeric Aβ42 (Homo sapiens, UniProt P05067)", "T1 construct": "from tissue; host or cells: brain of dementia mouse models", "T1 sequence (P05067 672-713 limits assumed)": "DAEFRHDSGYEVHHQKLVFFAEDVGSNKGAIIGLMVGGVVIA", "assay": "Brain tissue immunohistofluorescence, oligomeric Aβ", "format": "in vivo, mouse", "conditions": "oral 100 μg/kg twice a week for 2 months, confocal, FIG. 8", "experimental": "Oligomeric Aβ formation in the brain tissue may cause neuronal cell death by neuronal cytotoxicity, which may cause dementia. Therefore, anatomical analysis of the brain tissue was performed to examine whether the benzene diamine derivatives of the present disclosure inhibit neuronal cytotoxicity by oligomeric Aβ in dementia mouse models.\nIn detail, as in Experimental Example 7-1, the dementia mouse models were prepared and their brain tissues were stained. Anti-oligomeric Aβ primary antibody (ab126892, Abcam, Eugene, USA) labeled with QD525 probe (red fluorescence) was used to examine changes in the quantity of oligomeric Aβ42. Further, to measure changes of plaques, the tissues were stained with a fluorescent staining reagent MX04 (blue) and incubated at 4° C. for 12 hours. Thereafter, the tissues were observed under a confocal microscope at 0.5×10."}, "monomeric Aβ42": {"molecular_target": "T2, monomeric Aβ42 (Homo sapiens, UniProt P05067)", "T2 construct": "from tissue; host or cells: brain of dementia mouse models", "T2 sequence (P05067 672-713 limits assumed)": "as above", "assay": "Brain tissue immunohistofluorescence, monomeric Aβ (BAM-10) and plaques (MX04)", "format": "in vivo, mouse", "conditions": "oral 100 μg/kg twice a week for 2 months, confocal, FIG. 7", "experimental": "Overexpression of monomeric Aβ may increase formation of oligomeric Aβ, Aβ aggregates, and amyloid plaques to cause neuronal cytotoxicity. Therefore, anatomical analysis of the brain tissue was performed to examine whether the benzene diamine derivatives of the present disclosure inhibit monomeric Aβ formation in dementia mouse models.\nAs in Experimental Example 1, a control group was orally administered with a vehicle for 2 months, and an experimental group was orally administered with 100 μg/kg/0.1 ml of N^1-(pyridin-2-ylmethyl)benzene-1,4-diamine (Compound 2) twice a week for 2 months. The brain was taken from a non-treated dementia mouse model (4 months), and the brains of the control group and the experimental group were also taken after the administration. Each mouse was anesthetized with ketamine, and then the skull was incised. The brain was then embedded in paraffin and subjected to immunohistofluorescence staining. The brain tissues were fixed in formalin and sectioned at a thickness of 50 μm by using a vibrotome, and each tissue was placed on a glass slice. For comparison of monomeric Aβ, BAM-10 monoclonal anti-Aβ primary antibody labeled with QD525 probe (green fluorescence) was used to examine changes in the quantity of monomeric Aβ42. […]"}}}
{"smiles": "Nc1ccc(NCc2ccccn2)cc1", "note": "[Compound 2, N^1-(pyridin-2-ylmethyl)benzene-1,4-diamine]", "values": [{"measurement": "brain morphology / longitudinal section", "setting": "[1]", "value": "brain morphology similar to that of the normal group"}, {"measurement": "Aβ aggregates (ThT) in brain", "setting": "Aβ aggregates", "value": "Aβ aggregates were hardly observed"}, {"measurement": "oligomeric Aβ in brain", "setting": "oligomeric Aβ42", "value": "oligomeric Aβ was hardly observed"}, {"measurement": "monomeric Aβ formation in cortex and hippocampus", "setting": "monomeric Aβ42", "value": "monomeric Aβ formation was hardly observed"}, {"measurement": "plaques (MX04) in brain", "setting": "monomeric Aβ42", "value": "plaques were hardly observed"}]}
